Paper PMC5497837 (Journal of basic and clinical physiology and pharmacology, 2016)

Biological target: CB1 cannabinoid receptor (CB1R) (Mus musculus, UniProt P47746)
Experiment: inhibition of forskolin-activated cAMP accumulation in N18TG2 cells
Type: cell-based

Sequence of CB1 cannabinoid receptor (CB1R) (P47746 whole entry): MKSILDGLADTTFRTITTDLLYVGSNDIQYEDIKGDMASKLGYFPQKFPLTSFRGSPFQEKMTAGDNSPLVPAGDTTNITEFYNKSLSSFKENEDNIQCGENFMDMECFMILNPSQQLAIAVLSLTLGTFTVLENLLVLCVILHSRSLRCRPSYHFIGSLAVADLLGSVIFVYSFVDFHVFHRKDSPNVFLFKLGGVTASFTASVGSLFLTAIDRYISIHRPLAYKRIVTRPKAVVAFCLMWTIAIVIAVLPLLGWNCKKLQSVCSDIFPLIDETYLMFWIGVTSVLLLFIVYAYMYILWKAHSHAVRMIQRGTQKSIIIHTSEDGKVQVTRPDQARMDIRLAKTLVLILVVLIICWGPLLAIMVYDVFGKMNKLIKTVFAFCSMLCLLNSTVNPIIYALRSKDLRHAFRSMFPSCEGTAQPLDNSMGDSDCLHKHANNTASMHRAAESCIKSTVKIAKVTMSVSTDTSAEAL

For CCCCCCC(C)(C)c1ccc([C@@H]2C[C@@H](O)CC[C@H]2CCCO)c(O)c1 [CP55940, (-)-3-[2-hydroxyl-4-(1,1-dimethylheptyl)phenyl]-4-[3-hydroxylpropyl] cyclohexan-1-ol], the EC50 was 3.11 nM.
